For two compounds, residual kinase activity results are on record in paper PMC11167047 (Cell Death Discovery, 2024).

Experiment in all cases: kinome screen (33PanQinase)
What all share (assay type): biochemical

The target in one assay is T1, MASTL (Homo sapiens, UniProt Q96GX5).
T1 construct: purchased Reaction Biology Europe GmbH (formerly ProQinase)
T1 sequence (Q96GX5 1-879): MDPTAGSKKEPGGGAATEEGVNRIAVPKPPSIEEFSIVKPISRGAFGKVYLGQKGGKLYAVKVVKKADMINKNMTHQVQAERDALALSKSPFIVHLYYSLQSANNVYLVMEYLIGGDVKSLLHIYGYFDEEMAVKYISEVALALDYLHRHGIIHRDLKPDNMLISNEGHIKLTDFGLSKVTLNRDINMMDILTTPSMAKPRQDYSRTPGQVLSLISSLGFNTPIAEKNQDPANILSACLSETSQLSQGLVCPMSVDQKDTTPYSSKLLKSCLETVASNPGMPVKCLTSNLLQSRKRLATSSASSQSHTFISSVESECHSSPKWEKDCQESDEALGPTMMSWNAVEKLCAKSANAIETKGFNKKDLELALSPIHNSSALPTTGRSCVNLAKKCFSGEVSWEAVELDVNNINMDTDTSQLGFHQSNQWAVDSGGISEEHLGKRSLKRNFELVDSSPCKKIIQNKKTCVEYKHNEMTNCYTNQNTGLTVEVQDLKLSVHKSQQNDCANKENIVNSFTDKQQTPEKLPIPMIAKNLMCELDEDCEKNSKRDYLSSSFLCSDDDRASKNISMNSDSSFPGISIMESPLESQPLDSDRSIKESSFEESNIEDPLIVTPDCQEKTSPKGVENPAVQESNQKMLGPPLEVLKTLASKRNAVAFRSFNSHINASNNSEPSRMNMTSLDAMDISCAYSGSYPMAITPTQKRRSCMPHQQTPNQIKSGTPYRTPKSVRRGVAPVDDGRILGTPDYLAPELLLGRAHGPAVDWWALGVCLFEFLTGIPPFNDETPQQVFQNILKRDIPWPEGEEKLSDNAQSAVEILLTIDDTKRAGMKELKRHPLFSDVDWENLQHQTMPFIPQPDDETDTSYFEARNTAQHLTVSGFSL
Here is the method:
(§1) The Kinome Screening was performed by Reaction Biology Europe GmbH (http://reactionbiology.com; Freiburg i. Br., Germany).

In another assay the target is T2, ACVRL1 (Homo sapiens, UniProt P37023).
T2 construct: purchased Reaction Biology Europe GmbH (formerly ProQinase)
As for the experimental part: as §1

In a further assay the target is T3, FRK (Homo sapiens, UniProt P42685).
T3 construct: purchased Reaction Biology Europe GmbH (formerly ProQinase)
As for the experimental part: as §1

Another assay addresses T4, RON (Homo sapiens, UniProt Q04912).
T4 construct: purchased Reaction Biology Europe GmbH (formerly ProQinase)
Here is the method:
as §1

A further assay has as its target T5, MST1 (Homo sapiens, UniProt Q13043).
T5 construct: purchased Reaction Biology Europe GmbH (formerly ProQinase)
T5 sequence (Q13043 1-487): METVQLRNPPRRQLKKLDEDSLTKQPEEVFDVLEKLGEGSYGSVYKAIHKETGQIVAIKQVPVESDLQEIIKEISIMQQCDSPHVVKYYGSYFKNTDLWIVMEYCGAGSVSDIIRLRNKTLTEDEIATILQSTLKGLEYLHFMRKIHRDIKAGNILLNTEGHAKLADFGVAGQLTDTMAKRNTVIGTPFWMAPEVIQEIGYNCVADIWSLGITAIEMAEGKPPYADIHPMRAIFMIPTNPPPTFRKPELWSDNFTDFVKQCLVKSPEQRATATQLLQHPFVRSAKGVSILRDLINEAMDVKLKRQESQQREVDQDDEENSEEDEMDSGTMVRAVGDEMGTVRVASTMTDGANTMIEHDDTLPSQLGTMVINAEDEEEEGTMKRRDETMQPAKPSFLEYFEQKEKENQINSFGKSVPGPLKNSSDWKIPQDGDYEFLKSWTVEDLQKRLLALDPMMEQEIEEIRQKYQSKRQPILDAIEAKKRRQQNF
Here is the method:
as §1

The next assay concerns the target T6, DNAPK (Homo sapiens, UniProt P78527).
T6 construct: purchased Reaction Biology Europe GmbH (formerly ProQinase)
Here is the method: as §1

The next assay concerns the target T7, PKCι (Homo sapiens, UniProt P41743).
T7 construct: purchased Reaction Biology Europe GmbH (formerly ProQinase)
T7 sequence (P41743 1-596): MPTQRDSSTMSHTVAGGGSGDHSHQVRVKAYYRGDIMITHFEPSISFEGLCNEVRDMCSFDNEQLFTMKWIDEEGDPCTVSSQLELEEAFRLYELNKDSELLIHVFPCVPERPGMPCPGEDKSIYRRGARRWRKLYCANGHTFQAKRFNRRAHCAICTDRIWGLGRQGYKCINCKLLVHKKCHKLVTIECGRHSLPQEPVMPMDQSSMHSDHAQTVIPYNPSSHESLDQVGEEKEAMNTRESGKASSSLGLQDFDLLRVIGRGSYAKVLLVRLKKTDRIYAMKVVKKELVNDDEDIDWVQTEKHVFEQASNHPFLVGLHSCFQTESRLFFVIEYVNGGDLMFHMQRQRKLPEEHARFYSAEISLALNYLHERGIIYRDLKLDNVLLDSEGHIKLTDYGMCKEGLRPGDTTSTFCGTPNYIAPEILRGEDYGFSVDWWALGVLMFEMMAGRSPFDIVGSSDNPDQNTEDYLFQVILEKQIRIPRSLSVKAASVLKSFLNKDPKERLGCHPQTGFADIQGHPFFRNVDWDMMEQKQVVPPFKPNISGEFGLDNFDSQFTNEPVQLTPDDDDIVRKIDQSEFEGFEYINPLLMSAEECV
Here is the method: as §1

The next assay deals with T8, AKT3 (Homo sapiens, UniProt Q9Y243).
T8 construct: purchased Reaction Biology Europe GmbH (formerly ProQinase)
As for the experimental part: as §1

In a further assay the target is T9, CAMK2B (Homo sapiens, UniProt Q13554).
T9 construct: purchased Reaction Biology Europe GmbH (formerly ProQinase)
As for the experimental part: as §1

The target in another assay is T10, MET (Homo sapiens, UniProt P08581).
T10 construct: purchased Reaction Biology Europe GmbH (formerly ProQinase)
Here is the method: as §1

T4 sequence (Q04912 25-1400): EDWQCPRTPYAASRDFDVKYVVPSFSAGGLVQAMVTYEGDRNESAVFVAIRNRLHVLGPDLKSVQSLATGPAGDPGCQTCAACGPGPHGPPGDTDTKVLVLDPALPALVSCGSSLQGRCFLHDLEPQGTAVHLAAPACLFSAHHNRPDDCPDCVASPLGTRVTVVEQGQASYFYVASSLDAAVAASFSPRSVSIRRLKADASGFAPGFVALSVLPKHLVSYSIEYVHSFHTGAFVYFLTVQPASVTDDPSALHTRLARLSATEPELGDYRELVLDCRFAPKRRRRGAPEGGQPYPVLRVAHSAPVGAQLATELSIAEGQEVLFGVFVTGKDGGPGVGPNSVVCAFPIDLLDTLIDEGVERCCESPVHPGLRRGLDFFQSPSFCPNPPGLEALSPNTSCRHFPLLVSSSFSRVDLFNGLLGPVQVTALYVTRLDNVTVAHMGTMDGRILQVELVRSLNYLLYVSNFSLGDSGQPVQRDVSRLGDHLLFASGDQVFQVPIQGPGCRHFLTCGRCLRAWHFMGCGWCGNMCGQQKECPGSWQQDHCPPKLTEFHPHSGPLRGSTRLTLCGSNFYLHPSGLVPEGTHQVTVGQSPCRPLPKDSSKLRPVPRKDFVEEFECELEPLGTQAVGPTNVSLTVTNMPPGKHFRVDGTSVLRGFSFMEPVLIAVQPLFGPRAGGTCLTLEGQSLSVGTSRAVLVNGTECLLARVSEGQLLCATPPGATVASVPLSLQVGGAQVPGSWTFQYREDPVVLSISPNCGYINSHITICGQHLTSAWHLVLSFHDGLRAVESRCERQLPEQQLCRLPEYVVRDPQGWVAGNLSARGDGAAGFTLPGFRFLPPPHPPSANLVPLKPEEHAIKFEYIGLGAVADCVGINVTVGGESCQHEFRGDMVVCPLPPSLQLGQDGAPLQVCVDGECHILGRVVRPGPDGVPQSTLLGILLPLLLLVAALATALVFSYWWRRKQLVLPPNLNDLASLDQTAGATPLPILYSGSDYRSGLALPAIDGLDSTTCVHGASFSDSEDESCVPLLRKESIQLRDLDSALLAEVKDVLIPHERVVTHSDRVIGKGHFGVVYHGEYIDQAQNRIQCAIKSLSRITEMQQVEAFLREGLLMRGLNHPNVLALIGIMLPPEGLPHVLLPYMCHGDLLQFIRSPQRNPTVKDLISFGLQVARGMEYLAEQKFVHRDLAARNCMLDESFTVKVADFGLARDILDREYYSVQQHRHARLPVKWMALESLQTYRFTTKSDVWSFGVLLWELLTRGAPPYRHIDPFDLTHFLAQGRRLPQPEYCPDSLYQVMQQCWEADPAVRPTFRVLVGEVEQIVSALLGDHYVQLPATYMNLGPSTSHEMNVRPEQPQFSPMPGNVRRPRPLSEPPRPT
T8 sequence (Q9Y243 whole entry): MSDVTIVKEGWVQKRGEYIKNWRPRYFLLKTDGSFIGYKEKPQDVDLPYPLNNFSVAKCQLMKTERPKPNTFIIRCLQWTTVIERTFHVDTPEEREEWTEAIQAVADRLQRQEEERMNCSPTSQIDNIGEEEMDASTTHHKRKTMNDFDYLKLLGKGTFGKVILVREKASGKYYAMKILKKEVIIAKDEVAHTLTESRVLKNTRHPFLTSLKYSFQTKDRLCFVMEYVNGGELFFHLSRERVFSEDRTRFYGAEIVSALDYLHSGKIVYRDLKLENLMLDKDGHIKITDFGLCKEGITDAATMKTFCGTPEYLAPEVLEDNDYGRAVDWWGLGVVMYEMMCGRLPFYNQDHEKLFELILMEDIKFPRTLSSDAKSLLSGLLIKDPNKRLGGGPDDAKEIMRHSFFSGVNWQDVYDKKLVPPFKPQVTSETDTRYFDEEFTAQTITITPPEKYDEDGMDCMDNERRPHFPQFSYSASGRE
T10 sequence (P08581 25-1390): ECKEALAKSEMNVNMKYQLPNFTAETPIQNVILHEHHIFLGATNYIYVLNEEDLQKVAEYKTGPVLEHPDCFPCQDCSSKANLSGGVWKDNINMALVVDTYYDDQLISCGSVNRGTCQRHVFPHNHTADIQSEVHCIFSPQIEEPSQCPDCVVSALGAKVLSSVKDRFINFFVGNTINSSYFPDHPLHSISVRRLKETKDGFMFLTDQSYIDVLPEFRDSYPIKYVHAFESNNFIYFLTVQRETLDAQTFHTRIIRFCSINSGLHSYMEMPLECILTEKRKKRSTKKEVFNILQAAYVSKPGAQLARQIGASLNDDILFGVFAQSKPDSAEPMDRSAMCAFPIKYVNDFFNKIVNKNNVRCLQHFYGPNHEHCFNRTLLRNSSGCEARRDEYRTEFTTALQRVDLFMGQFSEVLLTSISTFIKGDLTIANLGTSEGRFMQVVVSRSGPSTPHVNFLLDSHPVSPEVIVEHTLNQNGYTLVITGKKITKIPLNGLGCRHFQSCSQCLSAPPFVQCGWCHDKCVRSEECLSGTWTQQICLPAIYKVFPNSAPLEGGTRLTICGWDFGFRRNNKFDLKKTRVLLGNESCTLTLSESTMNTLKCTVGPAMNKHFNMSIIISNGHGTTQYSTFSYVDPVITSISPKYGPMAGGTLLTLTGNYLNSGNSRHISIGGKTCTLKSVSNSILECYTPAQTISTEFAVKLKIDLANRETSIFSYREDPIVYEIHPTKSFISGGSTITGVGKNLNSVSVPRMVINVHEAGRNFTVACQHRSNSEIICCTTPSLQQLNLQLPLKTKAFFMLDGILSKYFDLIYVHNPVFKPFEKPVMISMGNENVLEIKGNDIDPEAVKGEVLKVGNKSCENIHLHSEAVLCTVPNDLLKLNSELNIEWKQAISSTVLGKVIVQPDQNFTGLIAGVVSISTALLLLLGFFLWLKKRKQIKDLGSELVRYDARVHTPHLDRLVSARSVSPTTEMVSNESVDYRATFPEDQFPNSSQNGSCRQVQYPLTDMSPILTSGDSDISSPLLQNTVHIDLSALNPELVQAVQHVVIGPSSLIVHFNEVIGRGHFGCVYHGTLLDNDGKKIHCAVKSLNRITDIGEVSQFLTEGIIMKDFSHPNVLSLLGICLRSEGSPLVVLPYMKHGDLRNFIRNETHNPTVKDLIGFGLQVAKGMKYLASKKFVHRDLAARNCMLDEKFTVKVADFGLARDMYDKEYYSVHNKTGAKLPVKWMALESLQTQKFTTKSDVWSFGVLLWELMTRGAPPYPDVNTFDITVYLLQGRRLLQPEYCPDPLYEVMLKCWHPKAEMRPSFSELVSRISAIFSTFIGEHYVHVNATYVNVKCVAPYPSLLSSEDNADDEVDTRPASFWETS
T3 sequence (P42685 whole entry): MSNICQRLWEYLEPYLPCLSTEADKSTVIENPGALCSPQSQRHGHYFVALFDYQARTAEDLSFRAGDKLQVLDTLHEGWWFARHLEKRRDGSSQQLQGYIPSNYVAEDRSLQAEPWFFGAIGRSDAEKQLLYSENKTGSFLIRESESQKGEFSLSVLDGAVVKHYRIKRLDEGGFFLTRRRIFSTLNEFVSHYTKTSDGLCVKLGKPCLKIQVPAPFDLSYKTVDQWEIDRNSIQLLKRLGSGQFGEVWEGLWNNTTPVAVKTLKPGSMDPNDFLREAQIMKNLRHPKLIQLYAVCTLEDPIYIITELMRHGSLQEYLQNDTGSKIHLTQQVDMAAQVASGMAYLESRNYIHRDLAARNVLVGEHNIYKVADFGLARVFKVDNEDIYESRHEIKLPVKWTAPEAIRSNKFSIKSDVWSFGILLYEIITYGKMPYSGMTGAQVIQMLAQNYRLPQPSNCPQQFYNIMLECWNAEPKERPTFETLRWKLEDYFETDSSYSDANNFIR
T2 sequence (P37023 22-503): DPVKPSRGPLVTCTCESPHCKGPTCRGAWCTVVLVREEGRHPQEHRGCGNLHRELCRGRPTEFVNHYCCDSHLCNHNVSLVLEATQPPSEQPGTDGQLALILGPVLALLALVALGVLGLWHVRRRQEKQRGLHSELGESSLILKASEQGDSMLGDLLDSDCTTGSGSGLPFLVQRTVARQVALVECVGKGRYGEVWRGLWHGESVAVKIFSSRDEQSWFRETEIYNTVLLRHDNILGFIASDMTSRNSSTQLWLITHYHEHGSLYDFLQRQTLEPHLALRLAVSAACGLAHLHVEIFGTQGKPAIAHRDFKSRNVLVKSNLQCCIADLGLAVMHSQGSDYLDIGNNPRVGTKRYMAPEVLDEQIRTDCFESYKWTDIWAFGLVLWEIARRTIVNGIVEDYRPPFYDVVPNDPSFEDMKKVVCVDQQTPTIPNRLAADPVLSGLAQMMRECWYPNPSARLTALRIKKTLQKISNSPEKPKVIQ
T9 sequence (Q13554 whole entry): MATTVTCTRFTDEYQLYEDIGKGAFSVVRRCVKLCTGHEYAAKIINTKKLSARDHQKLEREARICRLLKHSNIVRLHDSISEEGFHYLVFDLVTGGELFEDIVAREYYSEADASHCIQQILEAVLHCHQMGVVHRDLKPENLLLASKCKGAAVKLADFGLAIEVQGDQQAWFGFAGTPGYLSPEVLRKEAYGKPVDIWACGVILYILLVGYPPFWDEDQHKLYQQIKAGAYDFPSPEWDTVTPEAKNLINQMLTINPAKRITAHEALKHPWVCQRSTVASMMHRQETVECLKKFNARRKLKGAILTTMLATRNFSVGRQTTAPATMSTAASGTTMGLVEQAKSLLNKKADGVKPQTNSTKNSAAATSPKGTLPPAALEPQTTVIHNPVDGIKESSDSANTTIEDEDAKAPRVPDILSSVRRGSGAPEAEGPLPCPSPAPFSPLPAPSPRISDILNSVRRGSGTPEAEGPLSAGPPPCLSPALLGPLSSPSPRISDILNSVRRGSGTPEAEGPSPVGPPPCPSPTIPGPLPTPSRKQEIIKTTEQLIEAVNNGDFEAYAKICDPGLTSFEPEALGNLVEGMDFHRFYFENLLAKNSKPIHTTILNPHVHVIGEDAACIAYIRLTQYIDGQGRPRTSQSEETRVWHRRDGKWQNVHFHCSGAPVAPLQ

As for `COc1ccnc2[nH]cc(-c3cc(N)nc(N)c3)c12` [meriolin 16], the residual kinase activity at MASTL (0.03 µM) is on record as 87 % of control; on MASTL (0.3 µM), 56 % of control; at ACVRL1 (0.03 µM), 101 % of control; on ACVRL1 (0.3 µM) it was 89 % of control; at FRK (0.03 µM), 103 % of control; on FRK (0.3 µM) it was 99 % of control. In addition, the residual kinase activity at RON (0.03 µM) is 92 % of control; on RON (0.3 µM), 90 % of control; at MST1 (0.03 µM), 88 % of control; on MST1 (0.3 µM), 49 % of control; at DNAPK (0.03 µM) it was 100 % of control; on DNAPK (0.3 µM) it was 97 % of control. Moreover, the residual kinase activity at PKCι (0.03 µM) is recorded as 105 % of control; on PKCι (0.3 µM), 94 % of control; on AKT3 (0.03 µM), 108 % of control; at AKT3 (0.3 µM) it was 82 % of control; at CAMK2B (0.03 µM) it was 103 % of control; on CAMK2B (0.3 µM), 74 % of control. Further, the figures for the residual kinase activity at MET (0.03 µM) and at MET (0.3 µM) were 110 % of control and 106 % of control, respectively.
In the case of `c1ccc(CNc2cc(-c3c[nH]c4ncccc34)ccn2)cc1` [meriolin 36], the residual kinase activity is listed as 64 % of control at MASTL (0.3 µM); 26 % of control on MASTL (3 µM); 43 % of control at ACVRL1 (0.3 µM); 9 % of control on ACVRL1 (3 µM); 54 % of control on FRK (0.3 µM); 16 % of control at FRK (3 µM). The residual kinase activity is given as 98 % of control at RON (0.3 µM); 76 % of control at RON (3 µM); 4 % of control on MST1 (0.3 µM); 1 % of control on MST1 (3 µM); 71 % of control at DNAPK (0.3 µM); 25 % of control at DNAPK (3 µM). The residual kinase activity on PKCι (0.3 µM) is 75 % of control; on PKCι (3 µM) it was 32 % of control; on AKT3 (0.3 µM), 93 % of control; on AKT3 (3 µM) it was 42 % of control; at CAMK2B (0.3 µM), 83 % of control; at CAMK2B (3 µM), 31 % of control. The residual kinase activity on MET (0.3 µM) is recorded as 99 % of control; at MET (3 µM) it was 48 % of control.
